From paper PMC11708041, “Structural basis of a microbial trimethylamine transporter” (mBio, 2024) come the findings set out here.

For one data set, the target named is T1, TmaT (Myroides profundi, UniProt A0A0B5RUB0).
T1 construct: full-length, 529 residues, C-terminal 8xHis tag (pET-22b), expressed in E. coli C43(DE3), DDM-solubilised; homotrimer
T1 sequence (A0A0B5RUB0 1-529): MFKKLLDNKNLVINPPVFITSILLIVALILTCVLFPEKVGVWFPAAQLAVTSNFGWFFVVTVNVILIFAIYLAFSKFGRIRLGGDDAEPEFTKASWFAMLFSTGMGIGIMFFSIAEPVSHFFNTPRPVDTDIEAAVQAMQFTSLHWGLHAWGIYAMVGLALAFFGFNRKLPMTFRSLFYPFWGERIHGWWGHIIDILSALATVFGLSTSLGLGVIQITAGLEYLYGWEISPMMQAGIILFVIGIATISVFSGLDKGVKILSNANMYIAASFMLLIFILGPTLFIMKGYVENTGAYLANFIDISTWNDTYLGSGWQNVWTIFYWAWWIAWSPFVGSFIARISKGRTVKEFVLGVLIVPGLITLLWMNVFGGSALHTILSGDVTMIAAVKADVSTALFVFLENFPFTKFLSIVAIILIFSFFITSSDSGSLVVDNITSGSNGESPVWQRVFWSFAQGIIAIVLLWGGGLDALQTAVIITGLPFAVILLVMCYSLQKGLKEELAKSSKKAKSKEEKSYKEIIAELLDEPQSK
The data set is described as follows: microscale thermophoresis. The format is binding. From the text:
microscale thermophoresis on TmaT
On the technique in general: MST reads how a fluorescent partner responds to local heating, with and without ligand.

Data set [1] concerns the molecule itself. Briefly: cryo-EM structure; single-particle cryo-EM of purified TmaT (about 8 mg/mL, in DDM); apo TmaT, and with 2 mM or 5 mM TMA; homotrimer.

By Kd is commonly meant the equilibrium constant for the complex coming apart. The low end stands for a tighter complex, the high end for a looser complex. At TmaT, `CN(C)C` [TMA] had a Kd of 49 ± 9.4 µM.

B1: TmaT, TMA transporter of Myroides profundi D25 (natural protein, UniProt A0A0B5RUB0 1-529, looked up)
chain: MFKKLLDNKNLVINPPVFITSILLIVALILTCVLFPEKVGVWFPAAQLAVTSNFGWFFVVTVNVILIFAIYLAFSKFGRIRLGGDDAEPEFTKASWFAMLFSTGMGIGIMFFSIAEPVSHFFNTPRPVDTDIEAAVQAMQFTSLHWGLHAWGIYAMVGLALAFFGFNRKLPMTFRSLFYPFWGERIHGWWGHIIDILSALATVFGLSTSLGLGVIQITAGLEYLYGWEISPMMQAGIILFVIGIATISVFSGLDKGVKILSNANMYIAASFMLLIFILGPTLFIMKGYVENTGAYLANFIDISTWNDTYLGSGWQNVWTIFYWAWWIAWSPFVGSFIARISKGRTVKEFVLGVLIVPGLITLLWMNVFGGSALHTILSGDVTMIAAVKADVSTALFVFLENFPFTKFLSIVAIILIFSFFITSSDSGSLVVDNITSGSNGESPVWQRVFWSFAQGIIAIVLLWGGGLDALQTAVIITGLPFAVILLVMCYSLQKGLKEELAKSSKKAKSKEEKSYKEIIAELLDEPQSK
notes: TmaT, trimethylamine transporter of the betaine-choline-carnitine transporter (BCCT) family, Myroides profundi D25; full-length tmaT, 1,590 nucleotides encoding a 529-amino-acid polypeptide; no removal of the tag is described; Homotrimer in the cryo-EM structures; also called recombinant TmaT; WT TmaT
The term stoichiometry N denotes a count of units in the complex or per binding partner. For the molecule B1, the “stoichiometry N” value in data set [1] amounted to 3.
